{"source": "paper PMC10518257", "about": "(Nature Cancer, 2023)", "key": {"[1]": {"assay": "Transcellular transport study, apparent permeability", "conditions": "pig, LLC-PK1"}, "LUAD-0002AS1 cells": {"tested_on": "LUAD-0002AS1 cells", "assay": "Growth inhibition (alamarBlue, 96 h)", "format": "cell-based, human", "conditions": "for raw viability signal (Source Data Fig. 3b-c): LUAD-0002AS1, replicate sets"}, "[2]": {"tested_on": "Ba/F3 cells expressing KIF5B–RET^WT", "assay": "Growth inhibition assay in Ba/F3 cells (CellTiter-Glo, 72 h)", "format": "cell-based", "conditions": "replicate sets"}, "Ba/F3 cells": {"tested_on": "Ba/F3 cells", "assay": "Growth inhibition assay in Ba/F3 cells (CellTiter-Glo, 72 h)", "format": "cell-based", "conditions": "replicate Sets 1-3"}, "MMNK1 cholangiocytes": {"tested_on": "MMNK1 cholangiocytes", "assay": "Growth inhibition (alamarBlue, 96 h)", "format": "cell-based, human", "conditions": "for raw viability signal (Source Data Fig. 3b-c): MMNK, replicates"}, "TT cells (RET C634W)": {"tested_on": "TT cells (RET C634W)", "assay": "Dose-response western blotting, EC50 for inhibition of protein phosphorylation", "format": "cell-based", "conditions": "Homo sapiens"}, "[3]": {"assay": "Animal weight of tumor-bearing mice", "conditions": "for Animal Weight (g), Mean: Ba/F3-KIF5B::RET tumor-bearing mice (Ext. Data Fig 8i); for Animal Weight: LUAD-0077AS1 PDX, individual animals"}, "[4]": {"conditions": "Homo sapiens, 96 h, read-out: IC50 for Inhibition of Growth (95% CI)"}}, "note": "Values joined by “and” are separate entries in the source; they are usually repeats but may differ in a detail not shown here. Equal entries are not always repeated. Where two headings read alike, the source gives them in different places."}
{"molecule": "CO[C@]1(C(=O)N[C@@H](C)c2ccc(-n3cc(F)cn3)nc2)CC[C@H](c2nc(C)cc(Nc3cc(C)[nH]n3)n2)CC1", "note": "[Pralsetinib]", "values": [{"measurement": "Papp at 3 h, 1 μM", "setting": "[1]", "result": 14.3, "unit": "×10⁻⁶ cm/s"}, {"measurement": "IC50", "setting": "LUAD-0002AS1 cells; [4]", "result": 4, "unit": "nM"}, {"measurement": "raw viability signal (Source Data Fig. 3b-c)", "setting": "LUAD-0002AS1 cells; 0.01 nM", "result": "15231.7 and 11282.9 and 12487.7"}, {"measurement": "raw viability signal (Source Data Fig. 3b-c)", "setting": "LUAD-0002AS1 cells; 0.1 nM", "result": "13433.7 and 11365.6 and 12797.1"}, {"measurement": "raw viability signal (Source Data Fig. 3b-c)", "setting": "LUAD-0002AS1 cells; 1 nM", "result": "14274.6 and 7102.45 and 10515"}, {"measurement": "raw viability signal (Source Data Fig. 3b-c)", "setting": "LUAD-0002AS1 cells; 10 nM", "result": "5412.04 and 2878.75 and 4059.15"}, {"measurement": "raw viability signal (Source Data Fig. 3b-c)", "setting": "LUAD-0002AS1 cells; 100 nM", "result": "2211.78 and 2052.44 and 2966.29"}, {"measurement": "raw viability signal (Source Data Fig. 3b-c)", "setting": "LUAD-0002AS1 cells; 1000 nM", "result": "1138.02 and 1548.13 and 2436.62"}, {"measurement": "raw viability signal (Source Data Fig. 3b-c)", "setting": "LUAD-0002AS1 cells; 10000 nM", "result": "935.955 and 1429.45 and 2173.09"}, {"measurement": "GI50", "setting": "[2]; Ba/3-KIF5B-RET", "result": "7.33 nM and 4.09 nM"}, {"measurement": "GI50", "setting": "[2]; Mus musculus, BaF3, Ba/3-KIF5B-RET", "result": 8.11, "unit": "nM"}, {"measurement": "GI50", "setting": "Ba/F3 cells; Ba/F3 (parental)", "result": 1420, "unit": "nM"}, {"measurement": "GI50", "setting": "Ba/F3 cells; Mus musculus, BaF3, Ba/F3 (parental)", "result": 1070, "unit": "nM"}, {"measurement": "IC50", "setting": "MMNK1 cholangiocytes; [4]", "result": 1220, "unit": "nM"}, {"measurement": "raw viability signal (Source Data Fig. 3b-c)", "setting": "MMNK1 cholangiocytes; 0.01 nM", "result": "14061.5 and 14595.7"}, {"measurement": "raw viability signal (Source Data Fig. 3b-c)", "setting": "MMNK1 cholangiocytes; 0.1 nM", "result": "14508.1 and 15314.3"}, {"measurement": "raw viability signal (Source Data Fig. 3b-c)", "setting": "MMNK1 cholangiocytes; 1 nM", "result": "14527.4 and 15275.2"}, {"measurement": "raw viability signal (Source Data Fig. 3b-c)", "setting": "MMNK1 cholangiocytes; 10 nM", "result": "14437.6 and 14593.5"}, {"measurement": "raw viability signal (Source Data Fig. 3b-c)", "setting": "MMNK1 cholangiocytes; 100 nM", "result": "12743.6 and 12893.3"}, {"measurement": "raw viability signal (Source Data Fig. 3b-c)", "setting": "MMNK1 cholangiocytes; 1000 nM", "result": "8417.95 and 8619.63"}, {"measurement": "raw viability signal (Source Data Fig. 3b-c)", "setting": "MMNK1 cholangiocytes; 10000 nM", "result": "2073.73 and 2410.62"}, {"measurement": "EC50", "setting": "TT cells (RET C634W); read-out: EC50 for Inhibition of Protein Phosphorylation (95% CI), AKT S473, 2 h, densitometry", "result": 1.5, "unit": "nM"}, {"measurement": "EC50", "setting": "TT cells (RET C634W); read-out: EC50 for Inhibition of Protein Phosphorylation (95% CI), ERK1/2 T202/Y204, 2 h, densitometry", "result": 2, "unit": "nM"}, {"measurement": "EC50", "setting": "TT cells (RET C634W); read-out: EC50 for Inhibition of Protein Phosphorylation (95% CI), MEK1/2 S217/S221, 2 h, densitometry", "result": 4.3, "unit": "nM"}, {"measurement": "EC50", "setting": "TT cells (RET C634W); read-out: EC50 for Inhibition of Protein Phosphorylation (95% CI), P70 RSK T421/S424, 2 h, densitometry", "result": 0.4, "unit": "nM"}, {"measurement": "EC50", "setting": "TT cells (RET C634W); read-out: EC50 for Inhibition of Protein Phosphorylation (95% CI), RET Y905, 2 h, densitometry", "result": 1, "unit": "nM"}, {"measurement": "EC50", "setting": "TT cells (RET C634W); read-out: EC50 for Inhibition of Protein Phosphorylation (95% CI), S6RP S235/S236, 2 h, densitometry", "result": 0.7, "unit": "nM"}, {"measurement": "Animal Weight, Mean", "setting": "[3]; Ba/F3-KIF5B::RET G810R (Fig 8f), Pralsetinib 10 mg/kg BID, day 1", "result": 26.74, "unit": "g"}, {"measurement": "Animal Weight, Mean", "setting": "[3]; Ba/F3-KIF5B::RET G810R (Fig 8f), Pralsetinib 10 mg/kg BID, day 4", "result": 26.42, "unit": "g"}, {"measurement": "Animal Weight, Mean", "setting": "[3]; Ba/F3-KIF5B::RET G810R (Fig 8f), Pralsetinib 10 mg/kg BID, day 8", "result": 25.72, "unit": "g"}, {"measurement": "Animal Weight, Mean", "setting": "[3]; Ba/F3-KIF5B::RET G810R (Fig 8f), Pralsetinib 10 mg/kg BID, day 11", "result": 26.48, "unit": "g"}, {"measurement": "Animal Weight, Mean", "setting": "[3]; Ba/F3-KIF5B::RET G810R (Fig 8f), Pralsetinib 10 mg/kg BID, day 15", "result": 26.66, "unit": "g"}, {"measurement": "Animal Weight, Mean", "setting": "[3]; Ba/F3-KIF5B::RET G810R (Fig 8g), Pralsetinib 30 mg/kg BID, day 1", "result": 25.3, "unit": "g"}, {"measurement": "Animal Weight, Mean", "setting": "[3]; Ba/F3-KIF5B::RET G810R (Fig 8g), Pralsetinib 30 mg/kg BID, day 4", "result": 26.8, "unit": "g"}, {"measurement": "Animal Weight, Mean", "setting": "[3]; Ba/F3-KIF5B::RET G810R (Fig 8g), Pralsetinib 30 mg/kg BID, day 8", "result": 26.6, "unit": "g"}, {"measurement": "Animal Weight, Mean", "setting": "[3]; Ba/F3-KIF5B::RET G810R (Fig 8g), Pralsetinib 30 mg/kg BID, day 11", "result": 25.3, "unit": "g"}, {"measurement": "Animal Weight, Mean", "setting": "[3]; Ba/F3-KIF5B::RET G810R (Fig 8g), Pralsetinib 30 mg/kg BID, day 15", "result": 26.0, "unit": "g"}, {"measurement": "Animal Weight (g), Mean", "setting": "[3]; 3 mg/kg BID, day 1", "result": 26.4, "unit": "g"}, {"measurement": "Animal Weight (g), Mean", "setting": "[3]; 3 mg/kg BID, day 4", "result": 26.5, "unit": "g"}, {"measurement": "Animal Weight (g), Mean", "setting": "[3]; 3 mg/kg BID, day 8", "result": 26.3, "unit": "g"}, {"measurement": "Animal Weight (g), Mean", "setting": "[3]; 3 mg/kg BID, day 11", "result": 27.3, "unit": "g"}, {"measurement": "Animal Weight (g), Mean", "setting": "[3]; 3 mg/kg BID, day 15", "result": 27.9, "unit": "g"}, {"measurement": "Animal Weight (g), Mean", "setting": "[3]; 10 mg/kg BID, day 1", "result": 26.2, "unit": "g"}, {"measurement": "Animal Weight (g), Mean", "setting": "[3]; 10 mg/kg BID, day 4", "result": 26.8, "unit": "g"}, {"measurement": "Animal Weight (g), Mean", "setting": "[3]; 10 mg/kg BID, day 8", "result": 26.6, "unit": "g"}, {"measurement": "Animal Weight (g), Mean", "setting": "[3]; 10 mg/kg BID, day 11", "result": 26.8, "unit": "g"}, {"measurement": "Animal Weight (g), Mean", "setting": "[3]; 10 mg/kg BID, day 15", "result": 27.7, "unit": "g"}, {"measurement": "Animal Weight (g), Mean", "setting": "[3]; 30 mg/kg BID, day 1", "result": 26.2, "unit": "g"}, {"measurement": "Animal Weight (g), Mean", "setting": "[3]; 30 mg/kg BID, day 4", "result": 26.3, "unit": "g"}, {"measurement": "Animal Weight (g), Mean", "setting": "[3]; 30 mg/kg BID, day 8", "result": 25.8, "unit": "g"}, {"measurement": "Animal Weight (g), Mean", "setting": "[3]; 30 mg/kg BID, day 11", "result": 26.9, "unit": "g"}, {"measurement": "Animal Weight (g), Mean", "setting": "[3]; 30 mg/kg BID, day 15", "result": 27.4, "unit": "g"}, {"measurement": "Animal Weight (g), Mean", "setting": "[3]; 60 mg/kg BID, day 1", "result": 25.8, "unit": "g"}, {"measurement": "Animal Weight (g), Mean", "setting": "[3]; 60 mg/kg BID, day 4", "result": 25.8, "unit": "g"}, {"measurement": "Animal Weight (g), Mean", "setting": "[3]; 60 mg/kg BID, day 8", "result": 25.6, "unit": "g"}, {"measurement": "Animal Weight (g), Mean", "setting": "[3]; 60 mg/kg BID, day 11", "result": 26.0, "unit": "g"}, {"measurement": "Animal Weight (g), Mean", "setting": "[3]; 60 mg/kg BID, day 15", "result": 26.0, "unit": "g"}, {"measurement": "Animal Weight", "setting": "[3]; Pralsetinib 30 mg/kg BID, treatment day 0", "result": "23 g (2×) and 26 g (2×) and 21 g (2×) and 24 g and 25 g (2×) and 22 g"}, {"measurement": "Animal Weight", "setting": "[3]; Pralsetinib 30 mg/kg BID, treatment day 4", "result": "26 g (2×) and 23 g and 21 g (2×) and 24 g (2×) and 25 g (2×) and 22 g"}]}
